≈ marks a conversion by molar mass, not a printed value. Calls of active or inactive are those of the source. No cut-off for these calls is given here.
Tests used:
[1] = test system: Aspergillus fumigatus; test: Antimicrobial activity against Aspergillus fumigatus assessed as growth inhibition after 24 to 48 hr by two-fold serial dilution method; format: functional
[2] = test system: Staphylococcus aureus; test: Antimicrobial activity against Staphylococcus aureus ATCC 25923 assessed as growth inhibition after 24 to 48 hr by two-fold serial dilution method; format: functional
[3] = test system: Pseudomonas fluorescens; test: Antimicrobial activity against Pseudomonas fluorescens S 97 assessed as growth inhibition after 24 to 48 hr by two-fold serial dilution method; format: functional
[4] = test system: Pseudomonas savastanoi pv. phaseolicola; test: Antimicrobial activity against Pseudomonas syringae pv. phaseolicola GSPB 2828 assessed as growth inhibition after 24 to 48 hr by two-fold serial dilution method; format: functional
[5] = test system: Aspergillus fumigatus; test: Antimicrobial activity against Aspergillus fumigatus assessed as diameter of growth inhibition zone at 1 mg/ml by agar diffusion method; conditions: read-out: DIZ
[6] = test system: Fusarium oxysporum; test: Antimicrobial activity against Fusarium oxysporum assessed as diameter of growth inhibition zone at 1 mg/ml […] by agar diffusion method; format: functional; conditions: read-out: DIZ
[7] = test system: Streptococcus pyogenes; test: Antimicrobial activity against Streptococcus pyogenes ATCC 19615 assessed as diameter of growth inhibition zone at 1 mg/ml after 24 hr by agar diffusion method; format: functional; conditions: ATCC 19615, 24 h, read-out: DIZ
[8] = test system: Streptococcus pyogenes; test: Antimicrobial activity against Streptococcus pyogenes ATCC 19615 assessed as growth inhibition after 24 to 48 hr by two-fold serial dilution method; format: functional
[9] = test system: Streptococcus pyogenes; test: Antimicrobial activity against Streptococcus pyogenes ATCC 19615 assessed as growth inhibition after 24 to 48 hr by two-fold serial dilution method relative to chloramphenicol; format: functional
[10] = test system: Staphylococcus aureus; test: Antimicrobial activity against Staphylococcus aureus ATCC 25923 assessed as diameter of growth inhibition zone at 1 mg/ml after 24 hr by agar diffusion method; format: functional; conditions: ATCC 25923, 24 h, read-out: DIZ
[11] = test system: Pseudomonas savastanoi pv. phaseolicola; test: Antimicrobial activity against Pseudomonas syringae pv. phaseolicola GSPB 2828 assessed as diameter of growth inhibition zone at 1 mg/ml after 24 hr by agar diffusion method; format: functional; conditions: GSPB 2828, 24 h, read-out: DIZ
[12] = test system: Staphylococcus aureus; test: Antimicrobial activity against Staphylococcus aureus ATCC 25923 assessed as growth inhibition after 24 to 48 hr by two-fold serial dilution method relative to chloramphenicol; format: functional
[13] = test system: Staphylococcus aureus; test: Antimicrobial activity against Staphylococcus aureus ATCC 25923 assessed as growth inhibition after 24 to 48 hr by two-fold serial dilution method relative to cephalothin; format: functional
[14] = test system: Pseudomonas fluorescens; test: Antimicrobial activity against Pseudomonas fluorescens S 97 assessed as diameter of growth inhibition zone at 1 mg/ml after 24 hr by agar diffusion method; format: functional; conditions: S 97, 24 h, read-out: DIZ
[15] = test system: Fusarium oxysporum; test: Antimicrobial activity against Fusarium oxysporum assessed as growth inhibition after 24 to 48 hr by two-fold serial dilution method; format: functional

Q: What does the source list for `Cc1ccc(C2CC(c3ccc(-n4c(-c5ccc(OS(=O)(=O)c6ccc(C)cc6)cc5)nc5ccccc5c4=O)cc3)=NN2)cc1` (stereo unspecified)?
A: MIC [1]: 12.5 µg/mL (≈ 19.9 µM); MIC [2]: 3.12 µg/mL (≈ 4.99 µM); MIC [3]: inactive; MIC [4]: 50 µg/mL (≈ 79.8 µM); zone of inhibition at 1000 µg/mL [5]: 31 mm; zone of inhibition at 1000 µg/mL [6]: 14 mm; zone of inhibition at 1000 µg/mL [7]: 38 mm; MIC [8]: 6.25 µg/mL (≈ 9.97 µM); growth inhibition (GI) [9]: 50%; zone of inhibition at 1000 µg/mL [10]: 43 mm; zone of inhibition at 1000 µg/mL [11]: 19 mm

Q: How did the MIC [1] turn out when `Cc1ccc(S(=O)(=O)Oc2ccc(-c3nnnn3-c3ccccc3C(=O)O)cc2)cc1` was run?
A: inactive

Q: What about the “growth inhibition (GI)” value [12] of the same compound?
A: 25%

Q: And the MIC [2]?
A: 12.5 µg/mL (≈ 28.6 µM)

Q: What about the MIC [3] of the same compound?
A: 50 µg/mL (≈ 115 µM)

Q: And the “growth inhibition (GI)” value [13]?
A: 50%

Q: What about the zone of inhibition at 1000 µg/mL [14] of the same compound?
A: 20 mm

Q: What about the MIC [15] of the same compound?
A: 50 µg/mL (≈ 115 µM)

Q: What about the zone of inhibition at 1000 µg/mL [6] of the same compound?
A: 19 mm

Q: And the zone of inhibition at 1000 µg/mL [7]?
A: 38 mm

Q: What about the MIC [8] of the same compound?
A: 6.25 µg/mL (≈ 14.3 µM)

Q: And the zone of inhibition at 1000 µg/mL [10]?
A: 32 mm

Q: And the zone of inhibition at 1000 µg/mL [11]?
A: 14 mm

Q: What does the source list for `Cc1ccc(S(=O)(=O)Oc2ccc(-c3nc4ccccc4c(=O)n3-c3ccc(C4=NNC(c5ccccc5)C4)cc3)cc2)cc1` (stereo unspecified)?
A: MIC [1]: 12.5 µg/mL (≈ 20.4 µM); MIC [2]: 3.12 µg/mL (≈ 5.1 µM); MIC [3]: inactive; MIC [4]: 50 µg/mL (≈ 81.6 µM); zone of inhibition at 1000 µg/mL [5]: 31 mm; zone of inhibition at 1000 µg/mL [6]: 14 mm; zone of inhibition at 1000 µg/mL [7]: 38 mm; MIC [8]: 6.25 µg/mL (≈ 10.2 µM); growth inhibition (GI) [9]: 50%; zone of inhibition at 1000 µg/mL [10]: 43 mm; zone of inhibition at 1000 µg/mL [11]: 19 mm

Q: What does the source list for `Cc1ccc(S(=O)(=O)Oc2ccc(-c3nc4ccccc4c(=O)n3-c3ccc(N)cc3)cc2)cc1`?
A: MIC [1]: 25 µg/mL (≈ 51.7 µM); MIC [3]: 50 µg/mL (≈ 103 µM); zone of inhibition at 1000 µg/mL [14]: 18 mm; zone of inhibition at 1000 µg/mL [5]: 26 mm; MIC [15]: 6.25 µg/mL (≈ 12.9 µM); zone of inhibition at 1000 µg/mL [6]: 37 mm; zone of inhibition at 1000 µg/mL [7]: 15 mm; zone of inhibition at 1000 µg/mL [10]: 14 mm; zone of inhibition at 1000 µg/mL [11]: 15 mm

Q: With `Cc1ccc(S(=O)(=O)Oc2ccc(-c3nc4ccccc4c4nc(=S)[nH]n34)cc2)cc1` as the compound, how does the MIC [2] read?
A: 3.12 µg/mL (≈ 6.97 µM)

Q: What about the MIC [3] of the same compound?
A: 50 µg/mL (≈ 111 µM)

Q: What about the zone of inhibition at 1000 µg/mL [14] of the same compound?
A: 19 mm

Q: What about the zone of inhibition at 1000 µg/mL [5] of the same compound?
A: 14 mm

Q: What about the MIC [15] of the same compound?
A: 25 µg/mL (≈ 55.7 µM)

Q: And the zone of inhibition at 1000 µg/mL [6]?
A: 26 mm

Q: And the zone of inhibition at 1000 µg/mL [7]?
A: 37 mm

Q: What about the MIC [8] of the same compound?
A: 6.25 µg/mL (≈ 13.9 µM)

Q: And the zone of inhibition at 1000 µg/mL [10]?
A: 44 mm

Q: What about the zone of inhibition at 1000 µg/mL [11] of the same compound?
A: 15 mm

Q: How did the MIC [2] turn out when `CC(=O)OCC1=C(C(=O)O)N2C(=O)[C@@H](NC(=O)Cc3cccs3)[C@H]2SC1` [CEPHALOTHIN] was run?
A: 6.25 µg/mL (≈ 15.8 µM)

Q: And the MIC [3]?
A: 6.25 µg/mL (≈ 15.8 µM)

Q: What about the zone of inhibition at 1000 µg/mL [14] of the same compound?
A: 37 mm

Q: And the MIC [4]?
A: 6.25 µg/mL (≈ 15.8 µM)

Q: And the zone of inhibition at 1000 µg/mL [7]?
A: 37 mm

Q: What about the MIC [8] of the same compound?
A: 6.25 µg/mL (≈ 15.8 µM)

Q: And the zone of inhibition at 1000 µg/mL [10]?
A: 36 mm

Q: What about the zone of inhibition at 1000 µg/mL [11] of the same compound?
A: 38 mm

Q: For `Cc1ccc(S(=O)(=O)Oc2ccc(C3=Nc4ccccc4C4=NCCN34)cc2)cc1`, which MIC [2] is on record?
A: 25 µg/mL (≈ 59.9 µM)

Q: What about the MIC [3] of the same compound?
A: 50 µg/mL (≈ 120 µM)

Q: What about the zone of inhibition at 1000 µg/mL [14] of the same compound?
A: 19 mm

Q: What about the MIC [4] of the same compound?
A: 25 µg/mL (≈ 59.9 µM)

Q: And the zone of inhibition at 1000 µg/mL [5]?
A: 14 mm

Q: And the zone of inhibition at 1000 µg/mL [6]?
A: 15 mm

Q: And the zone of inhibition at 1000 µg/mL [7]?
A: 37 mm

Q: What about the MIC [8] of the same compound?
A: 6.25 µg/mL (≈ 15 µM)

Q: What about the zone of inhibition at 1000 µg/mL [10] of the same compound?
A: 25 mm

Q: What about the zone of inhibition at 1000 µg/mL [11] of the same compound?
A: 26 mm

Q: What does the source list for `Cc1ccc(S(=O)(=O)Oc2ccc(-c3nc4ccccc4c(=O)n3-c3nc4ccccc4s3)cc2)cc1`?
A: MIC [1]: inactive; growth inhibition (GI) [12]: 50%; MIC [2]: 6.25 µg/mL (≈ 11.9 µM); MIC [3]: 50 µg/mL (≈ 95.1 µM); zone of inhibition at 1000 µg/mL [14]: 20 mm; MIC [4]: 50 µg/mL (≈ 95.1 µM); zone of inhibition at 1000 µg/mL [6]: 14 mm; zone of inhibition at 1000 µg/mL [7]: 37 mm; MIC [8]: 6.25 µg/mL (≈ 11.9 µM); growth inhibition (GI) [9]: 50%; zone of inhibition at 1000 µg/mL [10]: 38 mm; zone of inhibition at 1000 µg/mL [11]: 19 mm

Q: With `Cc1ccc(S(=O)(=O)Oc2ccc(-c3nc4ccccc4c4nc(=O)[nH]n34)cc2)cc1` as the compound, how does the zone of inhibition at 1000 µg/mL [14] read?
A: 15 mm

Q: What about the MIC [4] of the same compound?
A: 6.25 µg/mL (≈ 14.5 µM)

Q: And the zone of inhibition at 1000 µg/mL [5]?
A: 15 mm

Q: What about the MIC [15] of the same compound?
A: 50 µg/mL (≈ 116 µM)

Q: And the zone of inhibition at 1000 µg/mL [6]?
A: 19 mm

Q: What about the zone of inhibition at 1000 µg/mL [7] of the same compound?
A: 15 mm

Q: And the zone of inhibition at 1000 µg/mL [10]?
A: 15 mm

Q: What about the zone of inhibition at 1000 µg/mL [11] of the same compound?
A: 38 mm

Source: ChEMBL document CHEMBL3045082, “Novel quinazolinone derivatives: synthesis and antimicrobial activity” (2013)
